{"source": "ChEMBL document CHEMBL1201862", "about": "“PubChem BioAssay data set” (2004)", "key": {"[1]": {"experiment": "HEK293 Cytotoxicity Assay Measured in Cell-Based System Using Plate Reader - 7071-01_Inhibitor_Dose_CherryPick_Activity_Set2.", "format": "functional"}, "HEK293": {"tested_on": "HEK293", "experiment": "HEK293T cell cytotoxicity, dose response, cytotoxicity control, ATP luminescence, cherry-pick samples (AID 687005);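 further: cells exposed to compound for 48 hours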", "format": "functional, cell-based", "details": "Homo sapiens"}, "[2]": {"target": "T1, Zinc finger protein mex-5 (Caenorhabditis elegans, UniProt Q9XUB2)", "T1 sequence (Q9XUB2 whole entry)": "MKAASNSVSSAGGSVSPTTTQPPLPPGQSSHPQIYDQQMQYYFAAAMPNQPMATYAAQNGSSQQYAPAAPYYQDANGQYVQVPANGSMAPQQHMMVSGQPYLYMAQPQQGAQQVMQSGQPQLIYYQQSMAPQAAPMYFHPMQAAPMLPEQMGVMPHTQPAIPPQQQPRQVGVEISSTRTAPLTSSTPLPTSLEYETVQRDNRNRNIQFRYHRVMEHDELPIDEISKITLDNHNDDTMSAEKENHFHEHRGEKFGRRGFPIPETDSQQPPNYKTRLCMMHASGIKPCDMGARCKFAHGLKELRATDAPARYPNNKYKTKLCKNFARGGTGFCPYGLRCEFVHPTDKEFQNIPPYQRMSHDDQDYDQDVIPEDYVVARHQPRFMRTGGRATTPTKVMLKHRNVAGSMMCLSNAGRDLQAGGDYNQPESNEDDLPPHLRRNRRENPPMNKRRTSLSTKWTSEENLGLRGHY", "experiment": "MEX-5/TCR-2 RNA interaction inhibitors, dose response, biochemical, C. elegans, fluorescence polarization (AID 1960)"}, "[3]": {"target": "T2, RNA-binding protein pos-1 (Caenorhabditis elegans, UniProt G5EF15)", "T2 sequence (G5EF15 whole entry)": "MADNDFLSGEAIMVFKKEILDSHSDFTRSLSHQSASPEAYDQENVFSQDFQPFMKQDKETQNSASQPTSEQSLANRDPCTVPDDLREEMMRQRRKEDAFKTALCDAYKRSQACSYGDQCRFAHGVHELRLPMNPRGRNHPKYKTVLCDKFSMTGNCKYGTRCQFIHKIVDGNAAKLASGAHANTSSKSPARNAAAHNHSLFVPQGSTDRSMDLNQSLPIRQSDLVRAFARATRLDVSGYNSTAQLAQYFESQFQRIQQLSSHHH", "experiment": "inhibitors of POS-1/mex-3 RNA binding, dose response, biochemical, fluorescence polarization (AID 1964);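 further: purified POS-1 fused to maltose binding protein made in E. coli; potency of compounds blocking POS-1 binding to fluorescent RNA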"}, "cells [4]": {"experiment": "cells"}, "[5]": {"target": "Disintegrin and metalloproteinase domain-containing protein 17 (Homo sapiens, UniProt P78536)", "sequence (P78536 whole entry, the tested form may be a part)": "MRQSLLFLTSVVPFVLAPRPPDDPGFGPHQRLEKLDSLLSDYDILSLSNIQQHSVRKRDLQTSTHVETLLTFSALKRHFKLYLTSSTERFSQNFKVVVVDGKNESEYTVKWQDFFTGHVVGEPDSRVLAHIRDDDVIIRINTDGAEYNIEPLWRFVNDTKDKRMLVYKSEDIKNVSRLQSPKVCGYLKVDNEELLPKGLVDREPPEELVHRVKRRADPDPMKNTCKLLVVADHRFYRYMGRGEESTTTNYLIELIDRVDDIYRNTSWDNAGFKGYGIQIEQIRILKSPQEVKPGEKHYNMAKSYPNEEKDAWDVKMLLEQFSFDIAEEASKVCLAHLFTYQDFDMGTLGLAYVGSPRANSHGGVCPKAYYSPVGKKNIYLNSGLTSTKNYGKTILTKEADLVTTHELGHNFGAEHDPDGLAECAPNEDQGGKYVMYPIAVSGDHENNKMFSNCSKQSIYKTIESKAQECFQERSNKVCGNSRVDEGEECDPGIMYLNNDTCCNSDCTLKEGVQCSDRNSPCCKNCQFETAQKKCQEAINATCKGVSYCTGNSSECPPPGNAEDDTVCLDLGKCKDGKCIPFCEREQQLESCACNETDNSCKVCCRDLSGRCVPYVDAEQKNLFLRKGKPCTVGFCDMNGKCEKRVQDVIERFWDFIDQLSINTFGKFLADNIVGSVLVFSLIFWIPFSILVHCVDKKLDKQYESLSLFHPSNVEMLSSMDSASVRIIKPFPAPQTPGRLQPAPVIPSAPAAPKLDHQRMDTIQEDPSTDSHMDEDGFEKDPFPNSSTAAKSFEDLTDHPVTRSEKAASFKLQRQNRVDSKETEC", "experiment": "ADAM17 protease inhibitors, dose response, counter-screen for ADAM10 exosite inhibitor project, biochemical, quenched FRET substrate (AID 743253)"}, "[6]": {"experiment": "ADAM10 inhibitors, peptide cleavage, dose response, biochemical, QFRET (AID 743254);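 further: ADAM10 enzyme with the DM2 quenched FRET peptide as substrate; EDANS fluorescence gain as the protease cuts the substrate; inhibitor potency against ADAM10 proteolytic activity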"}, "[7]": {"experiment": "Luminescence-based cell-based high throughput dose response assay to identify activators of the DAF-12 from the parasite S. stercoralis (ssDAF-12).", "format": "functional"}, "[8]": {"target": "T3, Oxysterols receptor LXR-beta (Homo sapiens, UniProt P55055)", "T3 sequence (P55055 whole entry)": "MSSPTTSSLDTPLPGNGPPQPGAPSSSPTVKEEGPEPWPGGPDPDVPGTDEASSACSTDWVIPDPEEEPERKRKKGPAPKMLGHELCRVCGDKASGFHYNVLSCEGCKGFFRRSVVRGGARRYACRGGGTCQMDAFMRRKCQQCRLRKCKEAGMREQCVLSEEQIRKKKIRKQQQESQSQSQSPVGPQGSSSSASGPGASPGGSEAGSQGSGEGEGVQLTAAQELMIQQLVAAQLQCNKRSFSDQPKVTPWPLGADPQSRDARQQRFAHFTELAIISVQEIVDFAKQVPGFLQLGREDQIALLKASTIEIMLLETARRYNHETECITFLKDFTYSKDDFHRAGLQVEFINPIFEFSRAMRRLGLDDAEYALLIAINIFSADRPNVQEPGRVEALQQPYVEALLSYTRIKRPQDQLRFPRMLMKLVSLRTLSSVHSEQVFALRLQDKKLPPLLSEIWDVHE", "experiment": "LXR agonists, Gal4 luciferase reporter, dose response, counter-screen for ssDAF-12 agonist project, cell-based, luminescence, HEK293, S. stercoralis campaign (AID 720737)", "format": "functional", "details": "read-out: IC50 (the source's name)"}, "[9]": {"target": "T3, Oxysterols receptor LXR-beta", "format": "functional, cell-based"}, "[10]": {"target": "T4, Sentrin-specific protease 7 (Homo sapiens, UniProt Q9BQF6)", "T4 sequence (Q9BQF6 whole entry)": "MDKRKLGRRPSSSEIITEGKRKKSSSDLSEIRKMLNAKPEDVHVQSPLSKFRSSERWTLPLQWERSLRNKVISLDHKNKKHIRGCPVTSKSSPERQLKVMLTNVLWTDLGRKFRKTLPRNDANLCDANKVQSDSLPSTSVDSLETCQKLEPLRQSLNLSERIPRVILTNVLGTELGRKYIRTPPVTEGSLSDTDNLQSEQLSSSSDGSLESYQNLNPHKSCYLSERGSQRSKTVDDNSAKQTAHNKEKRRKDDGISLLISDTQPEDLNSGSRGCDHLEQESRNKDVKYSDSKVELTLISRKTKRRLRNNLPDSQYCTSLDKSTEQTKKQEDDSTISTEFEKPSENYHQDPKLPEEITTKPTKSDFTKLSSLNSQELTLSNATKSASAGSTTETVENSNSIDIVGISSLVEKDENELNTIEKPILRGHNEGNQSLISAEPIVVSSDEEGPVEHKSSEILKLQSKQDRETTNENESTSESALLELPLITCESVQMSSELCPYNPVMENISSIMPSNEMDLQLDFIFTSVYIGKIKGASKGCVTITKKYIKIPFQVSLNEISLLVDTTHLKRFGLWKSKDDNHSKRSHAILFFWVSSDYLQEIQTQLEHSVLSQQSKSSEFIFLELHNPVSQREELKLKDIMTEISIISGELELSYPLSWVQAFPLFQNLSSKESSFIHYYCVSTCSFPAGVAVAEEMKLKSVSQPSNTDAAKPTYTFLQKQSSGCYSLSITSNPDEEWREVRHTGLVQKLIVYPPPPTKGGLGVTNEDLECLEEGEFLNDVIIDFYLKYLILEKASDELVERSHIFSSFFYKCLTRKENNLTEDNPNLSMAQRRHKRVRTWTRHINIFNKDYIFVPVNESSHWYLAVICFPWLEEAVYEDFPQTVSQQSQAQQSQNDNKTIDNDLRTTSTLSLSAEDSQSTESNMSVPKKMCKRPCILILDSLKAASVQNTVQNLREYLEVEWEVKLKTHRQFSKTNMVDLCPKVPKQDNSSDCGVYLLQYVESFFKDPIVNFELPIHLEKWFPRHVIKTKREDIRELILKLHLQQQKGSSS", "format": "functional"}, "Caspase-3": {"target": "T5, Caspase-3 (Homo sapiens, UniProt P42574)", "T5 sequence (P42574 whole entry)": "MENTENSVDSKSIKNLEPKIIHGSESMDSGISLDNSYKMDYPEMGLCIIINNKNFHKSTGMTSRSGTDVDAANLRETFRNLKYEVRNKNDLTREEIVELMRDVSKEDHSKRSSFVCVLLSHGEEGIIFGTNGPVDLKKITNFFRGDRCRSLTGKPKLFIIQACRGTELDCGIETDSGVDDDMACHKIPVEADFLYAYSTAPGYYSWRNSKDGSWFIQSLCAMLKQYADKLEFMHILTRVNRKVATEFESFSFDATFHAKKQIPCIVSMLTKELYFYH", "format": "functional"}, "[11]": {"target": "T6, Endoribonuclease toxin MazF (Escherichia coli K-12, UniProt P0AE70)", "T6 sequence (P0AE70 whole entry)": "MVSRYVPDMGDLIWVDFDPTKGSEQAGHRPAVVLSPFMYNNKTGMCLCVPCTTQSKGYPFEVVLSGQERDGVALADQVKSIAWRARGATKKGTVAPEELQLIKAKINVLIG", "experiment": "fluorescent RNA oligo signal without MazF, dose response, counter-screen for MazEF activator project, biochemical, fluorescence, single-stranded RNase substrate (AID 588502)", "format": "functional"}, "[12]": {"target": "T7, Sentrin-specific protease 6 (Homo sapiens, UniProt Q9GZR1)", "T7 sequence (Q9GZR1 whole entry)": "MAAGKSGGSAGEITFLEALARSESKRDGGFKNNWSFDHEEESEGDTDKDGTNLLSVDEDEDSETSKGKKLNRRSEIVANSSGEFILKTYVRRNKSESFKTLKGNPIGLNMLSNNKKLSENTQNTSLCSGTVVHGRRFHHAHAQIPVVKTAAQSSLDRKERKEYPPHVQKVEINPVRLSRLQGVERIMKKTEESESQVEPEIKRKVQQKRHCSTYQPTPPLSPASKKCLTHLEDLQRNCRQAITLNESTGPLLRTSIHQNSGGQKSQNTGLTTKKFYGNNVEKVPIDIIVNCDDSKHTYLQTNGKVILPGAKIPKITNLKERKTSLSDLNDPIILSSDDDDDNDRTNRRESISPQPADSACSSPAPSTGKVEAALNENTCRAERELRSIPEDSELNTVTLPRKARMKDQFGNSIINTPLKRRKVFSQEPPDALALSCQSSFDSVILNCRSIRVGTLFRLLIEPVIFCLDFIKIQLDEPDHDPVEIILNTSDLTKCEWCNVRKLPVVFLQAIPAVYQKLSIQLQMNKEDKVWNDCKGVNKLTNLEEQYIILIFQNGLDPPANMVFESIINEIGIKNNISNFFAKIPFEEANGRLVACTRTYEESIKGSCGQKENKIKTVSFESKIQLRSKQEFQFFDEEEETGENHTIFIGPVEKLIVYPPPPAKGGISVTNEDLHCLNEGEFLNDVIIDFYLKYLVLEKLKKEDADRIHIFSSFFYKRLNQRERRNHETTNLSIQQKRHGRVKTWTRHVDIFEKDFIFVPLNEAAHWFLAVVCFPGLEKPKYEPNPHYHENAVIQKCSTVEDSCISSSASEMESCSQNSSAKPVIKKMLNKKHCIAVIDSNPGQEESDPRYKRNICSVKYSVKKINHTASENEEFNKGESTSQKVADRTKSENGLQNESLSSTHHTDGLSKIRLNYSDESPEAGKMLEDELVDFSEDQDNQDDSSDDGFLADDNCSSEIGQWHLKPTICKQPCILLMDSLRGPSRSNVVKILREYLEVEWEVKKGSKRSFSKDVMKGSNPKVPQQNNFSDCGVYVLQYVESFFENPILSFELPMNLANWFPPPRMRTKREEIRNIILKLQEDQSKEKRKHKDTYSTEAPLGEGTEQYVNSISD", "format": "functional"}, "[13]": {"target": "T8, Sentrin-specific protease 8 (Homo sapiens, UniProt Q96LD8)", "T8 sequence (Q96LD8 whole entry)": "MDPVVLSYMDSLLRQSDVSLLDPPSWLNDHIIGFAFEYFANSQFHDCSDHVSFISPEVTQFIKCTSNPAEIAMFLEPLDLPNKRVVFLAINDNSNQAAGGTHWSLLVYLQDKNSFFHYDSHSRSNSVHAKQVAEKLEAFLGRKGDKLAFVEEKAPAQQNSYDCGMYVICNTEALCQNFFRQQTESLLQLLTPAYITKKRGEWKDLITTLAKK", "format": "functional"}, "cells [14]": {"experiment": "cells", "remark": "listed apart in the source"}, "[15]": {"target": "T6, Endoribonuclease toxin MazF", "experiment": "MazF toxin RNase activators, dose response, biochemical, fluorescence, single-stranded RNA substrate, uHTS hits (AID 588481)", "format": "functional"}, "[16]": {"target": "T3, Oxysterols receptor LXR-beta", "format": "functional, cell-based", "remark": "listed apart in the source"}, "HeLa": {"tested_on": "HeLa", "experiment": "HeLa cell cytotoxicity, dose response, cytotoxicity control, ATP luminescence, cherry-pick samples (AID 687004)", "format": "functional, cell-based", "details": "Homo sapiens"}}, "note": "Active and inactive are the calls of the source.", "data": [{"smiles": "Cc1ccc(C(=O)NC(=S)Nc2ccc(N3CCOCC3)cc2)cc1", "values": [{"measurement": "AC50", "setting": "[1]", "value": "20.1 µM (active)"}, {"measurement": "AC50", "setting": "HEK293", "value": "20.1 µM (active)"}]}, {"smiles": "CCN(CC)c1ccc2cc(C#N)c(=O)oc2c1", "values": [{"measurement": "EC50", "setting": "[2]", "value": "63 µM (inconclusive)"}, {"measurement": "EC50", "setting": "[3]", "value": "76.3 µM (active)"}, {"measurement": "AC50", "setting": "cells [4]", "value": "0.575 µM (active)"}]}, {"smiles": "COc1ccccc1NS(=O)(=O)c1cc(NC(=O)c2cc(F)c(F)c(F)c2F)ccc1N1CCOCC1", "values": [{"measurement": "IC50", "setting": "[5]", "value": "> 69.5 µM (inactive)"}, {"measurement": "IC50", "setting": "[6]", "value": "> 69.5 µM (inactive)"}]}, {"smiles": "OC(c1ccccc1)(c1nc(-c2ccc3c(c2)OCO3)cs1)C(F)(F)F", "note": "(stereo not drawn)", "values": [{"measurement": "IC50", "setting": "[5]", "value": "> 69.5 µM (inactive)"}, {"measurement": "IC50", "setting": "[6]", "value": "> 7.73 µM (active)"}]}, {"smiles": "C(=N\\NC1=Nc2cccc3cccc1c23)/c1ccccc1", "values": [{"measurement": "IC50", "setting": "[7]", "value": "> 67.5 µM (inactive)"}, {"measurement": "EC50", "setting": "[8]", "value": "> 67.5 µM (inactive)"}, {"measurement": "EC50", "setting": "[9]", "value": "> 67.5 µM (inactive)"}, {"measurement": "IC50", "setting": "[10]", "value": "5.42 µM (active)"}, {"measurement": "IC50", "setting": "Caspase-3", "value": "30.1 µM (active)"}, {"measurement": "EC50", "setting": "[11]", "value": "> 99 µM (inactive)"}, {"measurement": "IC50", "setting": "[12]", "value": "> 100 µM (inactive)"}, {"measurement": "IC50", "setting": "[13]", "value": "> 100 µM (inactive)"}, {"measurement": "EC50", "setting": "cells [14]", "value": "> 67.5 µM (inactive)"}, {"measurement": "EC50", "setting": "[15]", "value": "> 99 µM (inactive)"}, {"measurement": "EC50", "setting": "[16]", "value": "> 67.5 µM (inactive)"}]}, {"smiles": "C[C@@H]1CN([C@H](C)CO)C(=O)c2cccc(NC(=O)Nc3ccccc3)c2O[C@@H]1CN(C)Cc1ccc(Cl)c(Cl)c1", "values": [{"measurement": "AC50", "setting": "HeLa", "value": "45.7 µM (active)"}, {"measurement": "AC50", "setting": "[1]", "value": "9.06 µM (active)"}, {"measurement": "AC50", "setting": "HEK293", "value": "9.06 µM (active)"}]}]}
